Source: patent publication US20260184693A1, “INHIBITORS OF SOLUTE CARRIER FAMILY 6A MEMBER 19 (SLC6A19) AND METHODS OF USE THEREOF” (Maze Therapeutics, Inc., priority 2022, published 2026)

Key:
[1] = target: T1, human SLC6A19 (Homo sapiens, UniProt Q695T7); assay: Example B-1: L-[3H]leucine uptake, liquid scintillation, in CHO cells with doxycycline-inducible expression of human SLC6A19 and TMEM27; format: cell-based; settings: read-out: SLC6A19_Radioligand Uptake Assay IC50
T1 construct: expressed in transfected cells
T1 sequence (Q695T7 1-634): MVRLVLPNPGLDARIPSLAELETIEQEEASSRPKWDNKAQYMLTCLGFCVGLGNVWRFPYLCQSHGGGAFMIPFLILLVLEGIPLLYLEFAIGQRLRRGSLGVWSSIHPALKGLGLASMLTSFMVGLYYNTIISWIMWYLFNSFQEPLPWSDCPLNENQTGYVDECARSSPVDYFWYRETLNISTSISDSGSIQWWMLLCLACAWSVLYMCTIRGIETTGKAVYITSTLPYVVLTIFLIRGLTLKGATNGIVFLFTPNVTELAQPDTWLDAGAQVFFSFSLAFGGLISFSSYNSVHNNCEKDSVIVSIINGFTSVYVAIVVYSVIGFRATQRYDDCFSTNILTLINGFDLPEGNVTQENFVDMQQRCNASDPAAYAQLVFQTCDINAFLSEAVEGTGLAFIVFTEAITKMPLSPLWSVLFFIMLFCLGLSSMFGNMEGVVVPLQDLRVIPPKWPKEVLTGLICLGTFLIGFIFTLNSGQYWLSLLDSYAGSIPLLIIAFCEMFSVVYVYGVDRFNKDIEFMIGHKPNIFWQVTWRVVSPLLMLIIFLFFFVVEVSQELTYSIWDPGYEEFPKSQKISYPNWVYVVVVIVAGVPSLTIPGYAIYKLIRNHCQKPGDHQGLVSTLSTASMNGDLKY
T1 sequence (Q9HBJ8 15-222 partner): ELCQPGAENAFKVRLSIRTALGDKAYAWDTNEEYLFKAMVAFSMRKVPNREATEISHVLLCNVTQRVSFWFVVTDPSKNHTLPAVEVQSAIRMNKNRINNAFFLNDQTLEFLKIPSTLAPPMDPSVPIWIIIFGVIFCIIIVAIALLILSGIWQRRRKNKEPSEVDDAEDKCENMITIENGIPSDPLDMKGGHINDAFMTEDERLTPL
In short: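 CHO cells induced 18 h with 1 µg/mL doxycycline (uninduced wells as expression control), washed in HBSS, compound in 8-point 3-fold series (0.5% DMSO), then 1.6 mM final [3H]:cold leucine (1:15000) uptake for 20 min at 37 °C. Scintillation counting; activity normalized to positive control (0%) and DMSO (100%).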

[2] = target: T1, human SLC6A19; assay: Example B2: 13C6,15N-isoleucine uptake, RapidFire mass spectrometry, in CHO cells with doxycycline-inducible expression of human SLC6A19 and TMEM27; format: cell-based; settings: read-out: SLC6A19_RapidFire Uptake Assay IC50
In short: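 CHO cells were induced with doxycycline to express human SLC6A19 with TMEM27, then pre-incubated 20 min at 37 °C with compounds (2-fold, 10-point, duplicate). Uptake of 13C6,15N-isoleucine (2 mM solution added) over a further 20 min was measured by RapidFire mass spectrometry, using 13C-leucine as internal standard.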

Structure (SMILES)	IC50 [1]	IC50 [2]
CCc1ccc2cc(CNC(=O)N(C)[C@@H]3CCCN(C(C)=O)C3)[nH]c2c1 [Compound 219, (R)-1-(1-acetylpiperidin-3-yl)-3-((6-ethyl-1H-indol-2-yl)methyl)-1-methylurea]	> 10000 nM	12900 nM
CC(=O)N1CCC[C@@H](N(C)C(=O)NCc2cc3cc(C4CC4)ccc3[nH]2)C1 [Compound 220, (R)-1-(1-acetylpiperidin-3-yl)-3-((5-cyclopropyl-1H-indol-2-yl)methyl)-1-methylurea]	794 nM	953 nM
CC(=O)N1CCC[C@@H](N(C(=O)NCc2cc3cc(Cl)ccc3[nH]2)C(C)C)C1 [Compound 221, (R)-1-(1-acetylpiperidin-3-yl)-3-((5-chloro-1H-indol-2-yl)methyl)-1-isopropylurea]	2410 nM	4610 nM
CC(=O)N1CCC[C@@H](N(C(=O)NCc2cc3cc(Cl)ccc3[nH]2)C2CC2)C1 [Compound 222, (R)-1-(1-acetylpiperidin-3-yl)-3-((5-chloro-1H-indol-2-yl)methyl)-1-cyclopropylurea]	193 nM	63.3 nM
CCN(C(=O)NCc1cc2cc(Cl)ccc2[nH]1)[C@@H]1CCCN(C(=O)C2CCC2)C1 [Compound 232, (R)-3-((5-chloro-1H-indol-2-yl)methyl)-1-(1-(cyclobutanecarbonyl)piperidin-3-yl)-1-ethylurea]	230 nM	45.3 nM
CC(=O)N1CCC[C@@H](N(C)C(=O)NCc2cc3[nH]cc(C)c3cc2C)C1 [Compound 233, (R)-1-(1-acetylpiperidin-3-yl)-3-((3,5-dimethyl-1H-indol-6-yl)methyl)-1-methylurea]	15600 nM	9120 nM
Cc1conc1N1CCC[C@@H](N(C)C(=O)NCc2cc3cc(Cl)ccc3[nH]2)C1 [Compound 234, (R)-3-((5-chloro-1H-indol-2-yl)methyl)-1-methyl-1-(1-(4-methylisoxazol-3-yl)piperidin-3-yl)urea]	367 nM	255 nM
CC(=O)N1CCC[C@@H](N(C)C(=O)NCc2cc3[nH]cc(C)c3cc2Cl)C1 [Compound 235, (R)-1-(1-acetylpiperidin-3-yl)-3-((5-chloro-3-methyl-1H-indol-6-yl)methyl)-1-methylurea]	673 nM	893 nM
Cc1cc(C(=O)N2CCC[C@@H](N(C)C(=O)NCc3cc4cc(Cl)ccc4[nH]3)C2)nn1C [Compound 236, (R)-3-((5-chloro-1H-indol-2-yl)methyl)-1-(1-(1,5-dimethyl-1H-pyrazole-3-carbonyl)piperidin-3-yl)-1-methylurea]	975 nM	805 nM
CN(C(=O)NCc1cc2cc(Cl)ccc2[nH]1)[C@@H]1CCCN(C(=O)c2cccnc2)C1 [Compound 237, (R)-3-((5-chloro-1H-indol-2-yl)methyl)-1-methyl-1-(1-nicotinoylpiperidin-3-yl)urea]	434 nM	1210 nM
CN(C(=O)NCc1cc2cc(Cl)ccc2[nH]1)[C@@H]1CCCN(C(=O)c2cnoc2)C1 [Compound 238, (R)-3-((5-chloro-1H-indol-2-yl)methyl)-1-(1-(isoxazole-4-carbonyl)piperidin-3-yl)-1-methylurea]	283 nM	836 nM
CN(C(=O)NCc1cc2cc(Cl)ccc2[nH]1)[C@@H]1CCCN(C(=O)c2cnco2)C1 [Compound 239, (R)-3-((5-chloro-1H-indol-2-yl)methyl)-1-methyl-1-(1-(oxazole-5-carbonyl)piperidin-3-yl)urea]	209 nM	287 nM
CCn1ccc(C(=O)N2CCC[C@@H](N(C)C(=O)NCc3cc4cc(Cl)ccc4[nH]3)C2)n1 [Compound 240, (R)-3-((5-chloro-1H-indol-2-yl)methyl)-1-(1-(1-ethyl-1H-pyrazole-3-carbonyl)piperidin-3-yl)-1-methylurea]	154 nM	160 nM
CN(C(=O)NCc1cc2cc(Cl)ccc2[nH]1)[C@@H]1CCCN(C(=O)c2ccccn2)C1 [Compound 241, (R)-3-((5-chloro-1H-indol-2-yl)methyl)-1-methyl-1-(1-picolinoylpiperidin-3-yl)urea]	387 nM	626 nM
CC(=O)N1CCC[C@@H](N(C)C(=O)NCCc2ccc(F)c(-c3cc4ccccc4[nH]3)c2)C1 [Compound 244, (R)-1-(1-acetylpiperidin-3-yl)-3-(4-fluoro-3-(1H-indol-2-yl)phenethyl)-1-methylurea]	> 10000 nM	7080 nM
CC(=O)N1CCC[C@@H](N(C)C(=O)NCCc2cc(-c3cc4ccccc4[nH]3)c(Cl)cc2F)C1 [Compound 245, (R)-1-(1-acetylpiperidin-3-yl)-3-(4-chloro-2-fluoro-5-(1H-indol-2-yl)phenethyl)-1-methylurea]	459 nM	151 nM
